# Source: ChEMBL document CHEMBL1153334, “New cyclic peptide proteasome inhibitors” (Bioorg Med Chem Lett, 2009)
# Columns and labels:
# [1] = Metabolic stability in human plasma assessed as half life after 360 mins; type: ADME, cell-free
# cells [2] = experiment: cells
# Description: Inhibition of caspase-like activity of 20S proteasome beta 1 subunit by cell based assay
# cells [3] = experiment: cells; remark: listed apart in the source
# Description: Inhibition of trypsin-like activity of 20S proteasome beta 2 subunit by cell based assay
Compound,half-life [1] [h],IC50 (cells [2]) [nM],IC50 (cells [3]) [nM]
COC(=O)/C=C/[C@H](CC(C)C)NC(=O)CC[C@@H]1NC(=O)[C@H](CC(C)C)NC(=O)[C@H](CC(C)C)C(=O)NC(=O)CNC1=O,> 6,221,5830
COC(=O)/C=C/[C@H](CC(C)C)NC(=O)CC[C@H](NC(=O)[C@H](CC(C)C)NC(=O)[C@H](CC(C)C)C(=O)NC(=O)[C@H](C)N)C(N)=O,1.22,,
COC(=O)/C=C/[C@H](CC(C)C)NC(=O)CC[C@H](NC(=O)[C@H](CC(C)C)NC(=O)[C@H](CC(C)C)C(=O)NC(=O)[C@@H](N)C(C)C)C(N)=O,1.96,,
COC(=O)/C=C/[C@H](CC(C)C)NC(=O)CC[C@H](NC(=O)[C@H](CC(C)C)NC(=O)[C@H](CC(C)C)C(=O)NC(=O)[C@@H](N)CO)C(N)=O,1.43,,
COC(=O)/C=C/[C@H](CC(C)C)NC(=O)CC[C@H](NC(=O)[C@H](CC(C)C)NC(=O)[C@H](CC(C)C)C(=O)NC(=O)CN)C(N)=O,0.808,,

# The remaining lines, values ahead:
half-life [1] [h],IC50 (cells [2]) [nM],IC50 (cells [3]) [nM],Compound
> 6,273,,COC(=O)/C=C/[C@H](CC(C)C)NC(=O)CC[C@@H]1NC(=O)[C@H](CC(C)C)NC(=O)[C@H](CC(C)C)C(=O)NC(=O)[C@H](C(C)C)NC1=O
> 6,123,,COC(=O)/C=C/[C@H](CC(C)C)NC(=O)CC[C@@H]1NC(=O)[C@H](CC(C)C)NC(=O)[C@H](CC(C)C)C(=O)NC(=O)[C@H](C)NC1=O
> 6,91,6940,COC(=O)/C=C/[C@H](CC(C)C)NC(=O)CC[C@@H]1NC(=O)[C@H](CC(C)C)NC(=O)[C@H](CC(C)C)C(=O)NC(=O)[C@H](CO)NC1=O
